# Laboratory results from patent US11110158B2, “Prostate-associated antigens and vaccine-based immunotherapy regimens” (Pfizer Inc., priority 2012, dated 2021).
# Where “and” joins values, the source holds several entries; their conditions need not be identical. Identical values can stand only once. Like-named read-outs stand apart in the source and are kept apart here.
# Key:
# subcutaneous TUBO tumors = assay: Subcutaneous TUBO tumor growth and survival in BALB/neuT mice, sunitinib malate with cancer vaccine; format: in vivo, mouse; conditions: FIG. 33D; Sutent 20 mg/kg for 34 days combined with cancer vaccine
# Procedure: The Anti-tumor efficacy of sunitinib malate in combination with an anti-cancer DNA vaccine was investigated in BALB/neuT transgenic female mice. Heterozygote BALB/neuT transgenic female mice that express rat Her-2 (rHer-2) tumor associate antigen were implanted subcutaneously with 1e6 TUBO cells expressing rHer-2 which are derived from the spontaneous mammary tumors of BALB/neuT mice. After 7 days post tumor cell implantation, the mice were dosed once a day orally with either vehicle or sunitinib malate at doses as indicated in the legends. Three days after the initiation of sunitinib malate therapy, the mice were immunized with regimens comprised of either (a) control vaccine that expresses an antigen that is not expressed in the tumor or the mouse or (b) DNA cancer vaccine construct that expresses a rat Her-2 antigen of SEQ ID NO: 54 (rHER2) which is expressed in the tumor and the mouse. The tumor growth rate was analyzed by measuring the long (a) and short diameter (b) of the subcutaneous TUBO tumors twice a week and calculating the volume as a×b^2×0.5 mm^3. The average and standard error of the mean of the tumor volumes from 10 mice per each treatment group are plotted against the days after tumor implantation. […]
# [1] = Kinetics of blood sunitinib by LC/MS/MS in BALB/neuT mice with subcutaneous TUBO tumors; format: in vivo, mouse; conditions: for concentration at 2 h: peak at 2 hrs
# Procedure: The kinetics of blood sunitinib was investigated in BALB/neuT mice with subcutaneous TUBO tumors. Briefly, 20 mice per each treatment group were given Sutent orally, at 20 mg/kg once a day (SID) or at 10 mg/kg twice a day (BID) with 6 hr intervals, 6 days after tumor implantation. Submandibular blood from 2-3 mice was collected into lithium heparin tubes at several time points after Sutent dosing as indicated (0, 2, 4, 6, 8, 10, 12, and 24 hr). The plasma supernatant was recovered from the tubes after centrifugation at ×1000 g for 15 min. and the sunitinib levels from the plasma samples were measured by LC/MS/MS. The mean and standard error of the mean of each group at each time point is plotted.
# [2] = tested on: Myeloid Derived Suppressor Cells (MDSC); assay: Adoptively transferred MDSC recovered from spleen of BALB/c mice dosed with sunitinib; format: in vivo, mouse; conditions: CFSE+, CD3−, GR1+, CD11b+ cells, 2 days post adoptive transfer, vehicle 17470 +/− 2017
# Procedure: To generate MDSC enriched splenocytes, TUBO cells (1×10^6) were implanted into the flanks of 5 BALB/neuT mice, and left for approx. 20-30 days until tumor volume reached between 1000-1500 mm^3. Mice were then sacrificed, spleens removed and the MDSC enriched splenocytes recovered. Splenocytes were labeled for 10 minutes with 5 μM CFSE, washed with PBS and counted. Labeled cells were subsequently resuspended at 5×10^7 splenocytes/ml in PBS solution and adoptively transferred via an i.v. tail vein injection into naïve BALB/c recipient mice. Three days prior to adoptive transfer, the recipient mice began bi-daily dosing with vehicle or sunitinib malate (Sutent) at 5 mg/kg, 10 mg/kg and 20 mg/kg. Following adoptive transfer, recipient mice continued to receive bi-daily dosing of Vehicle or sunitinib for two further days, after which point the mice were sacrificed, spleens removed, splenocytes recovered and processed for phenotypic analysis.
# Splenocytes were counted and resuspended at 5×10^6 cells/ml in FACS staining buffer (PBS, 0.2% (w/v) bovine serum albumin, and 0.02% (w/v) Sodium Azide). For flow cytometry staining of splenocytes, 2.5×10^6 cells were first incubated with anti-bodies to CD16/CD32, 10 minutes at 4° C., to block Fc receptors and minimize non-specific binding. Splenocytes were then stained for 20 minutes at 4° C. with appropriate fluorophore conjugated antibodies (Biolegend) to murine cell surface markers. For T cells (anti-CD3 (Pacific Blue), clone 17A2) and for MDSC (anti-GR-1 (APC), clone RB6-8C5 and anti-CD11b (PerCp Cy5.5), clone M1/70). A live/dead stain was also included. […] To monitor the effect of Sunitinib or Vehicle on the adoptively transferred MDSC survival, we calculated the percentage of CFSE+,CD3−,GR1+,CD11b+ in the live, singlet gate. We then determined the number of adoptively transferred MDSC per spleen by calculating what actual cell number the percentage represented of total splenocytes count. Data was analyzed by FloJo and Graph pad software.
# phosphorylated STAT3 = assay: Phosphor-STAT3 ELISA of spleen extracts of TUBO tumor bearing BALB/neuT mice after Sutent; format: in vivo, mouse
# Procedure: (§1) The acute effect of Sutent on the phosphorylation status of STAT3 in the spleen was investigated in a subcutaneous tumor mouse model to evaluate the direct immunomodulatory effects of the compound. Briefly, 10-12 week old female BALB/neuT mice were implanted with 1e6 TUBO cells subcutaneously in the right flank. After forty one days post tumor implant, Sutent was given by oral gavage at 20 mg/kg. At 0, 1, 3, 7 and 24 hrs post Sutent dosing, three animals per timepoint were sacrificed under IAUCUC guidelines and spleens were immediately snap frozen in liquid nitrogen to preserve the phosphorylation status. Spleens from female BALB/c mice were snap frozen to use as healthy mice controls.
# (§2) Snap frozen spleens were homogenized at 100 mg tissue per 500 μL lysis buffer (70 mM NaCl, 50 mM β-glycerol phosphate, 10 mM HEPES, 1% Triton X-100, 100 mM Na3VO4, 100 mM PMSF, 1 mg/mL leupeptin) using a polytron tissue homogenizer. Resulting digests were centrifuged at 10,000 g for 15 minutes. The supernatant was isolated and protein concentrations were determined using BCA protein assay kit (Pierce, Rockford, Ill.). Forty micrograms of protein were added to each well of either a total STAT3 (eBioscience, cat no. 85-86101-11) or phosphor-STAT3 (eBioscience, cat no. 85-86102-11) ELISA Kit. Relative levels of either protein were compared with standards provided in the kit and with standards purchased independently (Signaling Technologies, cat no. 9333-S).
# total STAT3 = assay: Total STAT3 ELISA of spleen extracts of TUBO tumor bearing BALB/neuT mice after Sutent; format: in vivo, mouse
# Procedure: as §1, §2
# [3] = Mendel et al.; cited from earlier work
# 293 cells = assay: Expression of PSMA constructs in transfected 293 cells by FACS; format: cell-based; conditions: 293 cells transfected with PJV7563 vector, stained with mouse anti-PSMA antibody three days later; cell surface expression
# Procedure: The expression of the PSMA cytosolic, secreted, and modified antigens was determined by FACS. Mammalian 293 cells were transfected with the PJV7563 PMED vectors encoding the various immunogenic PSMA polypeptides. Three days later, the 293 cells were stained with mouse anti-PSMA antibody, followed with a fluorescent conjugated (FITC) rat anti-mouse secondary antibody.
# human PSMA = assay: ELISA, serum anti-PSMA antibody titers after PMED DNA vaccination; format: in vivo; conditions: Example 7, FIG. 28; Pasteur and C57BL/6 mice; day 35; within the same strain
# Procedure: Serum was subjected to enzyme-linked immunosorbent assays (ELISA) to determine the anti-PSMA and anti-PSCA antibody titers. In brief, ELISA plates were coated with 1 μg/ml of human PSMA or PSCA and incubated overnight at 4° C. Plates were then blocked and incubated at RT for 1 h with 1% bovine serum albumin (BSA). Each serum sample was serially diluted in duplicate starting at a 1:100 dilution and incubated for 1 h at RT. After washing, a horseradish-peroxidise (HRP)-conjugated goat anti-mouse polyclonal IgG antibody was incubated at RT for 1 h. After washing, the TMB Peroxidase EIA-Substrate was incubated at RT for 30 min. The colorimetric reaction was stopped by addition 1N sulfuric acid and the absorbance then read at 450 nm. Titration curves were plotted for each serum sample (sample dilution versus absorbance). The serum titer (subsequently transformed into reciprocal titer) was then taken as the most dilute serum sample tested with an optical density (OD) value of above the lower limit of detection (LLOD; background plus 3 standard deviations) or the serum dilution calculated to achieve an OD value of 1.0. […]
# The anti-PSMA and anti-PSCA antibody titers in the serum was determined using ELISA as described in Example 5. […]
# Antibody responses induced by the modified and full-length PSMA vaccines were measured in serum from each animal collected on day 35. […]
# [4] = tested on: hPSMA full-length protein; assay: IFN-γ ELISPOT, hPSMA modified versus full-length DNA vaccine in C57BL/6 mice; format: in vivo, human; conditions: Example 7, FIG. 26; C57BL/6, PMED days 0, 14, 28; day 35
# Text: The immune responses induced by DNA vaccination using a construct encoding an immunogenic PSMA polypeptide (the “human PSMA modified antigen” or “hPSMA modified”) consisting 15-750 amino acids (aa) of the native human PSMA protein of SEQ ID NO: 1 were compared with those induced by the native human full-length PSMA protein (hPSMA full length). Groups of female C57BL/6 mice or female Pasteur (HLA-A2/DR1) transgenic mice were primed on day 0 and boosted on days 14, 28 by PMED administration with a 2 μg dose of a DNA vaccine encoding either hPSMA full-length or hPSMA modified protein. Mice were bled and sacrificed on day 35 (7 days after the third vaccination) and T cell immune responses against the hPSMA full-length protein were determined in splenocytes by IFN-γ ELISPOT assay. For C57BL/6 mice, single cell suspensions of 5×10^5 splenocytes from individual animals were plated per well with […] purified hPSMA protein, 5×10^4 TRAMP-C2 cells alone, or TRAMP-C2 cells expressing hPSMA or a PSMA-PSA-PSCA fusion protein. […] Responses in Pasteur mice were also determined using 10 μg/ml purified PSMA protein or 5×10^4 SK-Mel5 cells that had been transduced with Adenoviral vectors expressing a control protein (Ad-eGFP) or the full-length human PSMA protein (Ad-hPSMA). […] The number of IFN-γ SFC was counted by a CTL reader. […]
# [5] = intravenous infusion, cited from earlier work
# [6] = 1 hr after Sutent 20 mg/kg oral gavage
# [7] = 3 hrs after Sutent 20 mg/kg oral gavage
# [8] = 7 hrs after Sutent 20 mg/kg oral gavage
# [9] = 24 hrs after Sutent 20 mg/kg oral gavage
molecule,measurement,setting,value
"CCN(CC)CCNC(=O)c1c(C)[nH]c(/C=C2\C(=O)Nc3ccc(F)cc32)c1C [Sunitinib, butanedioic acid, hydroxy-, (2S)-, compound with N-[2-(diethylamino)ethyl]-5-[(Z)-(5-fluoro-1,2-dihydro-2-oxo-3H-indol-3-ylidine)methyl]-2,4-dimethyl-1H-pyrrole-3-carboxamide (1:1)]",animals with significantly impaired progression of the tumor after discontinuation of Sutent treatment,subcutaneous TUBO tumors,60 % of the animals
same,time by which sunitinib cleared the blood,"[1]; 10 mg/kg BID orally, after the second dose",≤ 18 h
same,time by which sunitinib cleared the blood,"[1]; 20 mg/kg SID orally, post Sutent dosing",≤ 12 h
same,concentration at 2 h,"[1]; BALB/neuT, mouse, plasma, oral, 10 mg/kg BID (6 hr interval) orally, read-out: blood sunitinib level",> 50 ng/mL
same,concentration at 4 h,"[1]; BALB/neuT, mouse, plasma, oral, 10 mg/kg BID orally, by 4 hrs, read-out: blood sunitinib level",< 50 ng/mL
same,concentration at 6 h,"[1]; BALB/neuT, mouse, plasma, oral, 20 mg/kg SID orally, at 6 hrs, read-out: blood sunitinib level",50 ng/mL
same,concentration at 2 h,"[1]; BALB/neuT, mouse, plasma, oral, 20 mg/kg SID orally, read-out: blood sunitinib level",> 50 ng/mL
same,MDSC #/spleen Mean +/− SEM,[2]; Sunitinib 5 mg/kg bi-daily,10980 +/− 1082
same,MDSC #/spleen Mean +/− SEM,[2]; Sunitinib 10 mg/kg bi-daily,4207 +/− 338
same,MDSC #/spleen Mean +/− SEM,[2]; Sunitinib 20 mg/kg bi-daily,4440 +/− 440
same,"Phospho-STAT3 relative level, Mean",phosphorylated STAT3; [6],0.23
same,"Phospho-STAT3 relative level, individual values",phosphorylated STAT3; [6],0.26 and 0.25 and 0.19
same,"Phospho-STAT3 relative level, Mean",phosphorylated STAT3; [7],0.19
same,"Phospho-STAT3 relative level, individual values",phosphorylated STAT3; [7],0.19 and 0.15 and 0.22
same,"Phospho-STAT3 relative level, Mean",phosphorylated STAT3; [8],0.27
same,"Phospho-STAT3 relative level, individual values",phosphorylated STAT3; [8],0.19 and 0.31 and 0.29
same,"Phospho-STAT3 relative level, Mean",phosphorylated STAT3; [9],1.44
same,"Phospho-STAT3 relative level, individual values",phosphorylated STAT3; [9],1.54 and 1.30 and 1.47
same,"Total STAT3 relative level, Mean",total STAT3; [6],0.09
same,"Total STAT3 relative level, individual values",total STAT3; [6],0.12 and 0.08 (2×)
same,"Total STAT3 relative level, Mean",total STAT3; [7],0.13
same,"Total STAT3 relative level, individual values",total STAT3; [7],0.15 and 0.09 and 0.16
same,"Total STAT3 relative level, Mean",total STAT3; [8],0.08
same,"Total STAT3 relative level, individual values",total STAT3; [8],0.10 and 0.07 and 0.08
same,"Total STAT3 relative level, Mean",total STAT3; [9],0.08
same,"Total STAT3 relative level, individual values",total STAT3; [9],0.08
same,minimum sunitinib blood level necessary to effectively inhibit tumor growth in monotherapy,[3],50 ng/mL
"full length human PSMA (SEQ ID NO: 1): native human full-length PSMA protein (aa 1-750), SEQ ID NO: 1; tested as DNA vaccine",Average mean fluorescent intensity,293 cells,6425
same,serum anti-PSMA antibody titers,human PSMA,equivalent anti-PSMA antibody titer
same,IFN-γ T cell responses to TRAMP C2-PSMA or purified hPSMA protein,[4],equivalent T cell immune responses
"CP-870893: fully human agonistic CD40 monoclonal antibody, SEQ ID NO: 40 and 41",maximum tolerated dose (MTD),[5]; patients with advanced solid tumors,0.2 mg/kg
same,dose-limiting toxicities,[5]; phase I clinical study,grade 3 CRS and grade 3 urticaria
